Results on 8 molecules are retold here after publication PMC9119314 (Frontiers in Pharmacology, 2022).

“Also recorded” adds a separate entry of the source. Read-outs that look alike come from different tables or passages of the source.

The test system of data set [1] is P. falciparum (NF54-Mal8p1.16-GFP-Luc) late-stage gametocytes. The data set can be described thus: microbe, parasite or virus in culture. The data set is classed as cell-based, Plasmodium falciparum. The conditions noted are these: Plasmodium falciparum; for inhibition at 5 µM: NF54, read-out: Inhibition of late-stage gametocytes. As for the experimental part:
Gametocytes were produced as per [Reader et al. (2015]; [2021)] from P. falciparum NF54-Mal8p1.16-GFP-Luc ([Adjalley et al., 2011]), and each batch was validated for viability and functionality before use. […] Drug assays were set up on day 10 (representing late gametocytes, >90% stage IV/V gametocytes) using a 2–3% gametocytemia, 1.5% hematocrit culture. The drug pressure was for 48 h under stationary, hypoxic conditions (90% N2, 5% O2, and 5% CO2) at 37°C. Luciferase activity was determined in 30 μL parasite lysates by adding 30 μL luciferin substrate (Promega Luciferase Assay System) at room temperature and detection of resultant bioluminescence at an integration constant of 10 s with the GloMax®-Multi + Detection System with Instinct® Software. Methylene blue (5 μM) and an internal control (MMV390048, 5 μM) were routinely included as controls.

Data set [2] deals with A2780/WT cells. The data set can be described thus: Chemosensitivity MTT assay, A2780 wild type. The data set is classed as cell-based, human. The settings on record: ± SE, read-out: Activity against A2780/WT cells, IC50. How it is done: (§1) The chemosensitivity of compounds 3–6 was assessed in the wild-type immortalized human ovarian adenocarcinoma cell line A2780 and its daughter cell lines, which are resistant to the standard cancer chemotherapeutics doxorubicin (A2780/ADR) and cisplatin (A2780/CIS, all cell lines from ECACC, Salisbury, United Kingdom). A modified MTT assay was used ([Shnyder et al., 2008]). Cells (2 × 10^4/ml) were inoculated into each well of a 96-well plate and incubated for 24 h at 37°C in a humidified atmosphere containing 5% CO2. Compounds were then added at a range of concentrations to each well, and the plates were then incubated for a further 96 h. After 96 h, the culture medium was removed and 200 μL of 0.5 mg ml^–1 MTT solution (Sigma) in the complete medium was added to each well. Following a further 4 h incubation, the solution was removed from each well and 150 μL of DMSO was added to solubilize the formazan crystals resulting from MTT conversion. The absorbance values for the resulting solutions were read at 540 nm on an Azure 96-well microplate reader (Azure Biosynstems Inc.), and the cell survival was calculated as the absorbance of treated cells divided by the control.
On the technique in general: Tetrazolium assays rely on reduction of a dye to a coloured formazan, in cell work by metabolically active cells.

Data set [3] concerns A2780/cis cells. The data set can be described thus: Chemosensitivity MTT assay, cisplatin-resistant A2780/CIS. The settings on record: 96 h, ± SE, read-out: Activity against A2780/cis cells, IC50. The data set is classed as cell-based, human. How it is done: as §1
For data set [4], the system named is P. falciparum K1. Put plainly: In vitro antiplasmodial activity, P. falciparum K1 (lactate dehydrogenase assay). The data set is classed as cell-based, Plasmodium falciparum. The conditions noted are these: Plasmodium falciparum, read-out: Activity against P. falciparum K1, IC50. How it is done: P. falciparum (K1 clone) was maintained in human erythrocytes prepared from the donated blood samples (blood groups unknown, Ethical Tissue, University of Bradford), suspended in the RPMI 1640 medium as previously described ([Wright et al., 2001]), except that serum was replaced with Albumax II, [5% (^w/v)]. […] Twofold serial dilutions were made in 96-well microtiter plates in duplicate, and infected erythrocytes were added to give a final volume of 100 µL with 2.5% hematocrit and 1% parasitemia. Chloroquine diphosphate was used as a positive control, and uninfected and infected erythrocytes without compounds were included in each test. The plates were placed into a modular incubator; gassed with 93% nitrogen, 3% oxygen, and 4% carbon dioxide; and incubated at 37°C for 48 h. The parasite growth was assessed by measuring lactate dehydrogenase activity as described by [Makler et al. (1993)]. The reagent used contained the following in each mL: acetylpyridine adenine dinucleotide (APAD), 0.74 mg; lithium lactate, 19.2 mg; diaphorase, 0.1 mg; Triton X-100, 2 μL; nitroblue tetrazolium, 1 mg; and phenazine ethosulphate, 0.5 mg. Fifty microliter of this reagent was added to each well and mixed; plates were incubated for 15 min at 37°C. The optical densities were read at 550 nm using an Azure 96-well microplate reader (Azure Biosystems Inc.), and % inhibition of growth was calculated by comparison with the control values. IC50 values were determined using linear regression analysis (Microsoft Excel). A minimum of three separate determinations was carried out for each compound.

Data set [5] deals with T. brucei bloodstream forms (strain 427, derivative 221). Put plainly: In vitro activity against T. brucei bloodstream forms (resazurin). The data set is classed as cell-based, Trypanosoma brucei. The settings on record: Trypanosoma brucei, bloodstream forms, hydrochloride salts except 6 (citrate), ± SE. How it is done: Bloodstream form T. brucei (strain 427, derivative 221) was maintained in modified Iscove’s medium, as described previously ([Taylor et al., 2013]). […] The parasites were diluted to 1 × 10^4 ml^−1, the compound was added at a range of concentrations, and the plates were incubated at 37°C in 5% CO2 for 48 h. Resazurin was then added to each well, and the plates were incubated for a further 16 h. Fluorescence intensities were determined using a BMG FLUOstar Omega plate reader (excitation 545 nm, emission 590 nm), and data were analyzed using Graph Pad Prism 9.0 software. […]
Background: Resazurin is reduced to fluorescent resorufin, in cell work by metabolically active cells.

Data set [6] deals with A2780/ADR cells. Put plainly: Chemosensitivity MTT assay, doxorubicin-resistant A2780/ADR. The data set is classed as cell-based. The conditions noted are these: Homo sapiens, 96 h, ± SE, read-out: Activity against A2780/ADR cells, IC50. How it is done: as §1, with “A” for “The chemosensitivity of compounds 3–6 was assessed in the wild-type immortalized human ovarian adenocarcinoma cell line A2780 and its daughter cell lines, which are resistant to the standard cancer chemotherapeutics doxorubicin (A2780/ADR) and cisplatin (A2780/CIS, all cell lines from ECACC, Salisbury, United Kingdom). A”

The subject of data set [7] is P. falciparum 3D7. The data set can be described thus: In vitro antiplasmodial activity, P. falciparum 3D7 (SYBR Green I). The data set is classed as cell-based. The conditions noted are these: Plasmodium falciparum, read-out: Activity against P. falciparum 3D7, IC50. As for the experimental part: (§2) P. falciparum (3D7 clone) and P. knowlesi (A1-H.1 clone) were maintained in culture in RPMI 1640 supplemented with 25 mM HEPES, 25 mM NaHCO3, 10 mM D-glucose, 2 mM L-glutamine, 50 mg/L hypoxanthine, 25 mg/L gentamicin sulfate, 5 g/L Albumax II, and 10% (v/v) equine serum (Thermo Fisher Scientific, 26-050-088). The P. falciparum (3D7) and P. knowlesi (A1-H.1) parasites were grown in human A^+ red blood cells (National Health Blood and Transplant, United Kingdom). The parasites were incubated in sealed flasks at 37°C under a culture gas mixture of 96% N2, 3% CO2, and 1% O2. ([van Schalkwyk et al., 2019]). The compounds were initially dissolved in DMSO prior to diluting in RPMI. All experiments were initiated using unsynchronized parasites with both the parasitemia and hematocrit set to 1%. Drug susceptibility assays were set up in 96-well, flat-bottom microplates in a final volume of 200 μL, as described previously ([van Schalkwyk et al., 2017]). The controls were included for the background fluorescence (0% viability; parasites exposed to a supralethal 10 μM chloroquine concentration) and 100% growth (parasites in drug-free wells). The plates were incubated for one complete life cycle (27 h for P. knowlesi or 48 h for P. falciparum in vitro) at 37°C in a modular incubation chamber (Billups-Rothenburg Inc.) under the culture gas. Upon termination of the assay, the plates were stored at −20°C overnight. The SYBR Green I fluorescent method was used to measure parasite survival ([Bennett et al., 2004]; [Smilkstein et al., 2004]). After the microplates were thawed, 100 μL from each well was transferred into a duplicate plate. To this was added 100 μL of SYBR green solution [SYBR Green I (Thermo Fisher Scientific, S7563), diluted 1:5000 in a lysis buffer made of 20 mM Tris, 5 mM EDTA, 0.008% (w/v) saponin, 0.08% (v/v) Triton X-100, pH 7.5]. The plates were stored in the dark for 1 h before fluorescence was read at a 490 nm excitation wavelength and a 520 nm emission wavelength on a Spectramax M3 microplate reader (Molecular Devices) ([van Schalkwyk et al., 2017]). The background fluorescence (wells with parasites at 0% viability) was subtracted from all drug assay wells, and the parasite proliferation was determined as a percentage of the fluorescence in the drug-free control wells.

The subject of data set [8] is P. knowlesi A1-H.1. Put plainly: In vitro antiplasmodial activity, P. knowlesi A1-H.1 (SYBR Green I). The data set is classed as cell-based, Plasmodium knowlesi. The settings on record: Plasmodium knowlesi, 27 h, read-out: Activity against P. knowlesi A1-H.1, IC50, 27 h, ± SD. As for the experimental part: as §2
Data set [9] relates to P. berghei sporozoites. The data set can be described thus: P. berghei liver-stage assay (sporozoites in Hep G2-A16-CD81 cells, luciferase). The data set is classed as cell-based, Plasmodium berghei. The settings on record: Plasmodium berghei, HepG2-A16-CD81, 48 h, read-out: Activity against the P. berghei liver stage, IC50. As for the experimental part:
(§3) Briefly, 3000 Hep G2-A16-CD81 cells/well were seeded in 1536-well plates (Greiner Bio). 50 nL of the test and control compound diluted in DMSO was added and incubated for 24 h. […] The plates were centrifuged for 5 min at 330 × g and incubated at 37°C. Forty-eight hours post infection, 2 μL of luciferin reagent (Promega BrightGlo) was added to each well, and the luciferase activity was detected using a Perkin Elmer Envision plate reader. […] To counter-screen for cellular toxicity, Hep G2-A16-CD81 cells were seeded as above for the sporozoite liver-stage assay but in the absence of sporozoites. Toxicity measurements were performed by adding Promega CellTiterGlo® (2 μL), followed by luminescence measurements. Curve fitting was done as described above using puromycin (25 μM) as a positive control and DMSO as negative control wells.

The test system of data set [10] is Hep G2-A16-CD81 cells. The data set can be described thus: Hep G2 cellular toxicity counter-screen (CellTiterGlo). The settings on record: HepG2-A16-CD81, no sporozoites, ± SE, read-out: Activity against Hep G cells. The data set is classed as cell-based. As for the experimental part: as §3
In general terms: The purpose of a counterscreen is to sort out artefacts and off-target activity.

Data set [11] in a line: Acute oral toxicity in mice. The data set is classed as in vivo. The settings on record: oral, 20, 50 and 100 mg/kg/dose × 3 consecutive days; up to 100 mg/kg/dose; 2 as hydrochloride, 4–6 as citrate. How it is done: Female NIH Swiss mice aged 6–12 weeks were used (Envigo, Blackthorn, United Kingdom). The mice were kept in cages housed in isolation cabinets in an air-conditioned room with regular alternating cycles of light and darkness. They received Teklad 2018 diet (Envigo, Blackthorn, United Kingdom) and water ad libitum. All animal procedures were carried out under a project license issued by the UK Home Office, and UK National Cancer Research Institute Guidelines for the Welfare of Animals were followed throughout. […] A group of two untreated control animals was included at each dose level. Following treatment, the body weight was measured on a regular basis, and behavior and general appearance were monitored visually to assess for deleterious effects (e.g., dehydration, impaired mobility, hunched posture, a low body temperature, ulceration, and significant bodyweight loss), with any effects during the study recorded. […] If no deleterious effects were seen after at least 18 days of study, then the animals were sacrificed, and the dose was considered non-toxic.

Data set [12] deals with P. falciparum K1. Set-up: method as in Onyeibor et al., 2005. The settings on record: strain K1; ref Onyeibor et al., 2005; read-out: Activity against P. falciparum K1, IC50; cited from earlier work.
Data set [13] concerns P. berghei. The conditions noted are these: I.P., 25 mg/kg; ref Onyeibor et al., 2005; cited from earlier work.

A word on the inhibition: it is the relative decrease from the control value, in per cent. Take `CS(=O)(=O)c1ccc(-c2cnc(N)c(-c3ccc(C(F)(F)F)nc3)c2)cc1` [MMV 390048, reference compound]: the inhibition at 5 µM in data set [1] worked out at 96.2%.

For the molecule `N.N.[Cl][Pt][Cl]` [Cisplatin, reference compound], the values for the IC50 in [2] (96 h) and in data set [3] were 3470 ± 2200 nM and 24700 ± 2750 nM, respectively.

The IC90 is the concentration needed for an effect of 90%. As to `C[n+]1c2ccccc2cc2[n-]c3ccc(Br)cc3c21` [Compound 3, 7-Bromocryptolepine], the IC50 in data set [4] (chloroquine-resistant strain K1, 48 h, mean ± SE) was determined as 150 ± 30 nM; in data set [5] (64 h, 48 h + 16 h resazurin), 199 ± 15 nM; in data set [2] (Homo sapiens, A2780, 96 h), 70 ± 10 nM; in data set [6], 170 ± 40 nM; in data set [3] (Homo sapiens, A2780cis), 230 ± 20 nM. In addition, in [5], the 90% effect concentration (IC90) is 256 ± 6 nM.

For the molecule `CCN(CC)CCCC(C)Nc1ccnc2cc(Cl)ccc12` (stereo not drawn) [Chloroquine diphosphate, reference compound], the IC50 was 350 ± 140 nM in data set [4] (K1, 48 h); 12 ± 3 nM in [7] (3D7, 48 h); 20 ± 3 nM in data set [8].

For the molecule `COc1cccc2c1C(=O)c1c(O)c3c(c(O)c1C2=O)C[C@@](O)(C(=O)CO)C[C@@H]3O[C@H]1C[C@H](N)[C@H](O)[C@H](C)O1` [Doxorubicin, reference compound], the IC50 in [2] (Homo sapiens, A2780, 96 h) was found to be 70 ± 60 nM; in data set [6], 3030 ± 350 nM.

Consider `CN(C)c1ccc2nc3ccc(=[N+](C)C)cc-3sc2c1` [Methylene blue, reference compound], for which, in data set [1], the inhibition at 5 µM was 96%.

With `O=C1C(O)=C([C@H]2CC[C@H](c3ccc(Cl)cc3)CC2)C(=O)c2ccccc21` [Atovaquone, reference compound], the IC50 in data set [9] came out at 0.383 nM.

On to `Cn1c2c3cc(Br)ccc3nc-2cc2cc(Br)ccc21` [Compound 2, 2,7-dibromocryptolepine], for which the IC50 in data set [7] (chloroquine-sensitive strain 3D7, 48 h) was 30 ± 6 nM; in data set [8] it was 30 ± 4.5 nM; in [1] (NF54, 48 h, read-out: Activity against late-stage gametocytes IC50) it was 2000 ± 170 nM; in [10] it was 4940 ± 1810 nM; in data set [12], 49 ± 20 nM. Also, the “Acute oral toxicity in mice” value in data set [11] was “No toxicity was seen; also recorded: not toxic”. Moreover, the “Suppression of parasitemia in mice” value in [13] is listed as 90%. In addition, in [13], the “Toxicity to mice in the antimalarial test” value is recorded as “without apparent toxicity”.
